Patent US20120129212A1, “METHOD OF MONITORING ERYTHROPOIESIS” (VERTEX PHARMACEUTICALS INCORPORATED, priority 2009, published 2012)

Tested on: erythropoiesis (nascent erythrocytes)
Experiment: Cobalt chloride-induced erythropoiesis in eGFP mice (FACS of erythrocyte eGFP fluorescence)
Type: in vivo, hemizygous BALB/c mice
Conditions: for effect on erythropoiesis (right-shift of eGFP fluorescence curves): subcutaneous injection, six mice
Method: Mice were anesthetized with isofluorane and a minute incision was made into the lateral tail vein. Approximately 1 μl of tail vein blood was diluted into 0.5 ml of sterile saline containing 3 mM EDTA and stored at 4° C. Fluorescence activated cell sorting (FACS) was performed within 6 hours of blood collection on a FACSAria (BD Biosciences, San Jose, Calif.) flow cytometer. A 488 nm laser was used to excite the eGFP and a 530/30 nm band-pass filter and a 502 nm long-pass filter were used to monitor emissions. Forward and side scatter were used to gate for single erythrocytes, with approximately one hundred thousand events measured per blood sample. Median Fluorescence Intensity (MFI) for each erythrocyte population was analyzed using FlowJo 7.2.5 software (Tree Star, Inc. Ashland, Oreg.).
Tail vein blood (1 μl) was collected daily from one-year old hemizygous BALB/c mice starting on the day before cobalt chloride treatment (Day −1) and continuing through three days after treatment (Day 3) as described in Example 1, On Day 0, six one-year old BALB/c (hemizygous) mice were subcutaneously injected with 0.1 mL saline containing 4 μmols of cobalt chloride. FACS was performed immediately following the blood draw, and data were analyzed with FlowJo software as described in Example 1.

Compound: [Cl][Co][Cl] [cobalt chloride]
- increase in the number of nascent erythrocytes (4 μmols cobalt chloride s.c. on Day 0, Day 2 vs Day −1, statistically significant): 10 fold
- effect on erythropoiesis (right-shift of eGFP fluorescence curves): stimulates erythropoiesis in vivo
- effect on erythropoiesis (right-shift of eGFP fluorescence curves) (listed as Cobalt chloride): stimulated erythropoiesis in each of the six mice tested
